Results taken from EP4624465A1, “COMPOUND SERVING AS DDR1 KINASE INHIBITOR, AND MEDICINE” (Nippon Shinyaku Co., Ltd., priority 2022, dated 2024).

Legend:
DDR1 kinase [1] = biological target: T1, DDR1 kinase (Homo sapiens, UniProt Q08345); test: Evaluation of DDR1 kinase inhibition (LANCE Ultra TR-FRET kinase assay); format: biochemical; design: purchased Carna Biosciences 08-113; conditions: DDR1 protein 0.5 nM, LANCE Ultra ULight-poly GAT substrate, 2 hours at room temperature, duplicate; read-out: DDR-1 IC50
Target sequence in this assay (Q08345 19-876 isoform Q08345-2 limits assumed): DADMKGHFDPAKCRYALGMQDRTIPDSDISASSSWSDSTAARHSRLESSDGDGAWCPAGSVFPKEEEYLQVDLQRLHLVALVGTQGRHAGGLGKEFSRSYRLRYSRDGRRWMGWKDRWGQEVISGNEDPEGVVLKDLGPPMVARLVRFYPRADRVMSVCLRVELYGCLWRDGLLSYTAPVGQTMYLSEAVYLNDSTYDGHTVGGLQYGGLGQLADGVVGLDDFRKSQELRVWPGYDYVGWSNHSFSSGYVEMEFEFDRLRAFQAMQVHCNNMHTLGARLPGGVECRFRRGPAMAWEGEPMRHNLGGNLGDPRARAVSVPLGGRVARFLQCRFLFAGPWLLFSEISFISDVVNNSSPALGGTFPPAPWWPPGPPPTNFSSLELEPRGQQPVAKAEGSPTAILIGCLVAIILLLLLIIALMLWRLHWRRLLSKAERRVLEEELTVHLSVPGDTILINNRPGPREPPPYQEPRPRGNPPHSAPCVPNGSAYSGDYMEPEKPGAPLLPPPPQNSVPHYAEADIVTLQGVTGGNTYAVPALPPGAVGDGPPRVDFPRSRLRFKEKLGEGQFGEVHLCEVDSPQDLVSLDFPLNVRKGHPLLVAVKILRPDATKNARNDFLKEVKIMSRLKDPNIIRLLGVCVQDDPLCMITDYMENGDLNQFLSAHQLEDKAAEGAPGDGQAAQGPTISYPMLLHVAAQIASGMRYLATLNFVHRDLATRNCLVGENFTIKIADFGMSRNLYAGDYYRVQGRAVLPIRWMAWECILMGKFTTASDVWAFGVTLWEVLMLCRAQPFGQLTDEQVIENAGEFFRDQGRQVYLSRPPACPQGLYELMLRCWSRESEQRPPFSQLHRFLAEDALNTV

DDR1 kinase [2] = biological target: T1, DDR1 kinase; test: Evaluation of DDR1 kinase inhibition in DDR1-expressing U2OS cells (type I collagen stimulation, PathHunter detection); format: cell-based; design: host or cells: U2OS; conditions: type I collagen 50 µg/mL stimulation, duplicate, read-out: DDR-1 IC50
Procedure: The solution was further diluted in an E-MEM medium (Fujifilm Wako Pure Chemicals, 051-07615) containing 10% fetal bovine serum (FBS, Gibco, 10270106) to 60000, 6000, 600, 60, 6, and 0.6 nM to prepare test substance solutions. 2. […] On the following day, after the plate was left at room temperature for 1 hour, a detection solution was added to the wells at […] according to the handling instructions for the PathHunter® Detection Kit (DiscoverX, 93-0001), and then incubated at room temperature for 2 hours. After the incubation, a luminescence intensity was measured by Envision (Perkin-Elmer). Tests were performed in duplicate. 3.
Target sequence in this assay (Q08345 19-913): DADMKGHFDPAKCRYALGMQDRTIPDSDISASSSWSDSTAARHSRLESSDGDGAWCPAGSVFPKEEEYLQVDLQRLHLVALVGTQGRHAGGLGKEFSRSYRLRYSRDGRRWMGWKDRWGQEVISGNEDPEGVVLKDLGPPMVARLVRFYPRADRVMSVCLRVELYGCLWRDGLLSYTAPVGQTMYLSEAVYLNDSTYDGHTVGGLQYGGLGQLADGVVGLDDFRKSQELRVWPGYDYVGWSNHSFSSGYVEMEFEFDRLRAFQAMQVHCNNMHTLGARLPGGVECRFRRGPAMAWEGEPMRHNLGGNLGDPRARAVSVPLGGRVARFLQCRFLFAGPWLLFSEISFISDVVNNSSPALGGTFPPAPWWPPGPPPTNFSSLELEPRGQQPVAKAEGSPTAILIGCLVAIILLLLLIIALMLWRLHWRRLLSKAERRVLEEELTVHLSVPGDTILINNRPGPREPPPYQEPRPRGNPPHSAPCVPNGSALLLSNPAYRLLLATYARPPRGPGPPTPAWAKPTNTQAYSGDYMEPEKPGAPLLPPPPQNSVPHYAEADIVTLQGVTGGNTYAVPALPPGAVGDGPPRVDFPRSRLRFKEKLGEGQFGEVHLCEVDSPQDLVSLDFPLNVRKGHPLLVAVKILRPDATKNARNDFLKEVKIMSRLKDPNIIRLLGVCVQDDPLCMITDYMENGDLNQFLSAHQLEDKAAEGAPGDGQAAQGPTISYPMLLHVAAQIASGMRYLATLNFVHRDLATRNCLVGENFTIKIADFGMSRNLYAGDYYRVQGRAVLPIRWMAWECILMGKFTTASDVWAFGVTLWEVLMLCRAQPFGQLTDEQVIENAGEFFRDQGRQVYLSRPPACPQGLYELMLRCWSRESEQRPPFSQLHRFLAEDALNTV

Row | Compound | IC50 (DDR1 kinase [1]) [nM] | IC50 (DDR1 kinase [2]) [nM]
1 | Cc1ccc2c(n1)c(C1CN(C(=O)c3cc(N)ncc3F)C1)nn2CC(=O)N1CCOCC1(C)C [Compound E-186, 2-{3-[1-(2-amino-5-fluoropyridine-4-carbonyl)azetidin-3-yl]-5-methyl-1H-pyrazolo[4,3-b]pyridin-1-yl}-1-(3,3-dimethylmorpholin-4-yl)ethan-1-one p-toluenesulfonate] | 23 | 690
2 | O=C(c1cnc(NC2CC2)s1)N1CC(c2nn(CC(=O)N3CCC[C@H]3C(F)(F)F)c3cc(F)cc(F)c23)C1 [Compound E-98, 2-(3-{1-[2-(cyclopropylamino)-1,3-thiazole-5-carbonyl]azetidin-3-yl]-4,6-difluoro-1H-indazol-1-yl)-1-[(2S)-2-(trifluoromethyl)pyrrolidin-1-yl]ethan-1-one] | 86 | 3700
3 | CN(CC(F)(F)F)C(=O)Cn1nc(C2CN(C(=O)c3ccnc(N)n3)C2)c2c(F)cc(F)cc21 [Compound E-289, 2-{3-[1-(2-aminopyrimidine-4-carbonyl)azetidin-3-yl]-4,6-difluoro-1H-indazol-1-yl)-N-methyl-N-(2,2,2-trifluoroethyl)acetamide] | 45 | 
4 | Nc1cc(C(=O)N2CC(c3nn(Cc4ccc(C(F)(F)F)cn4)c4cncc(F)c34)C2)ccn1 [Compound E-150] | 350 | 
5 | O=C(c1cn[nH]c1)N1CC(c2nn(CC(=O)N3CCC[C@H]3C(F)(F)F)c3cc(F)cc(F)c23)C1 [Compound E-164, 2-(4,6-difluoro-3-[1-(1H-pyrazole-4-carbonyl)azetidin-3-yl]-1H-indazol-1-yl}-1-[(28)-2-(trifluoromethyl)pyrrolidin-1-yl]ethan-1-one] | 200 | 

Now those with a lower IC50 (DDR1 kinase [1]), led by results:

Row | IC50 (DDR1 kinase [1]) [nM] | IC50 (DDR1 kinase [2]) [nM] | Compound
6 | 4.8 | 21 | Nc1cc(C(=O)N2CC(c3nn(CC(=O)N4CCC[C@H]4C(F)(F)F)c4cc(F)ccc34)C2)c(F)cn1 [Compound E-275, 2-{3-[1-(2-amino-5-fluoropyridine-4-carbonyl)azetidin-3-yl]-6-fluoro-1H-indazol-1-yl}-1-[(2S)-2-(trifluoromethyl)pyrrolidin-1-yl]ethan-1-one]
7 | 22 | 3000 | Cc1c(C(=O)N2CC(c3nn(CC(=O)N4CCO[C@@H](C(F)(F)F)C4)c4cncc(F)c34)C2)ccnc1N [Compound E-180, 2-{3-[1-(2-amino-3-methylpyridine-4-carbonyl)azetidin-3-yl]-4-fluoro-1H-pyrazolo{3,4-c)pyridin-1-yl}-1-[(2R)-2-(trifluoromethyl)morpholin-4-yl}ethan-1-one]
8 | 21 | 390 | CN(C(=O)Cn1nc(C2CN(C(=O)c3cc(N)ncc3F)C2)c2ccccc21)C1COC1 [Compound E-254, 2-{3-{1-(2-amino-5-fluoropyridine-4-carbonyl)azetidin-3-yl]-1H-indazol-1-yl}-N-methyl-N-(oxetan-3-yl)acetamide]
9 | 1.6 | 6 | Nc1cc(C(=O)N2CC(c3nn(CC(=O)N4CCC[C@H]4C(F)(F)F)c4ccc(Cl)cc34)C2)c(F)cn1 [Compound E-206, 2-{3-[1-(2-amino-5-fluoropyridine-4-carbonyl)azetidin-3-yl}-5-chloro-1H-indazol-1-yl}-1-[(2S)-2-(trifluoromethyl)pyrrolidin-1-yl]ethan-1-one]
10 | 13 | 3300 | O=C(c1cnn2ccsc12)N1CC(c2nn(CC(=O)N3CCC[C@H]3C(F)(F)F)c3cc(F)cc(F)c23)C1 [Compound E-102]
11 | 1.4 |  | Nc1cc(C(=O)N2CC(c3nn(CC(=O)N4CCC[C@H]4C(F)(F)F)c4ccc(F)c(Cl)c34)C2)ccn1 [Compound E-144, 2-{3-[1-(2-aminopyridine-4-carbonyl)azetidin-3-yl]-4-chloro-5-fluoro-1H-indazol-1-yl}-1-[(2S)-2-(trifluoromethyl)pyrrolidin-1-yl]ethan-1-one]
